These results are taken from ChEMBL document CHEMBL4831520, “Discovery of First-in-Class Dual PARP and EZH2 Inhibitors for Triple-Negative Breast Cancer with Wild-Type BRCA” (J Med Chem, 2021).

The target of assay [1] is T1, Histone-lysine N-methyltransferase EZH2 (Homo sapiens, UniProt Q15910). Particulars: time 3.0 hrs.
Target sequence in this assay (Q15910 whole entry, looked up): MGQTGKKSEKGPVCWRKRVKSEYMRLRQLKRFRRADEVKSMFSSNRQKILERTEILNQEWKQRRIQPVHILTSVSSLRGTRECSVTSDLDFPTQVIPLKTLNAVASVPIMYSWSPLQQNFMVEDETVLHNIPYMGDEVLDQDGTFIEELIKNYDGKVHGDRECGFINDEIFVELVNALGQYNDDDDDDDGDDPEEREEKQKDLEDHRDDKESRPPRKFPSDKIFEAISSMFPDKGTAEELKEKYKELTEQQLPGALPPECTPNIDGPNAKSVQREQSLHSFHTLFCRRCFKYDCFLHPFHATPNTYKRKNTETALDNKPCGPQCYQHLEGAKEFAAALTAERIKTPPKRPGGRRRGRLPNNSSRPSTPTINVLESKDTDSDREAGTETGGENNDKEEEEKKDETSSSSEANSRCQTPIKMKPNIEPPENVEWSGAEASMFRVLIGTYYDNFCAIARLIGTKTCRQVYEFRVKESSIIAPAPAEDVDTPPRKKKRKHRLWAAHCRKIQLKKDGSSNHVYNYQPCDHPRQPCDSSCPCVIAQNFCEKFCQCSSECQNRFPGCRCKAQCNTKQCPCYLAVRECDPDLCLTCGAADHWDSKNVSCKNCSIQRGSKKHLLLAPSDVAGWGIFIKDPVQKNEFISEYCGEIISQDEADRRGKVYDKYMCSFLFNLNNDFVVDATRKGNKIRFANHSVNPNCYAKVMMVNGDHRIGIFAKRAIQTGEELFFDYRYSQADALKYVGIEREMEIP
Assay [2] concerns MCF-10A. The experiment in a line: cells. The format is ADME, cell-based. Particulars: Homo sapiens, 72 h.
Description: Antiproliferative activity against human MCF-10A cells assessed as cell viability after 72 hrs by MTT assay
Assay [3] has as its system MCF7. As to the kind of experiment: cells. Particulars: Homo sapiens, MCF7, 72 h. The format is functional, cell-based.
Description: Antiproliferative activity against human MCF7 cells assessed as cell viability after 72 hrs by MTT assay
Assay [4] deals with T1, Histone-lysine N-methyltransferase EZH2.
Target sequence in this assay (Q15910 whole entry): as the sequence (Q15910 whole entry, looked up) above
Assay [5] has the same target. This is another data set of the same source.
Target sequence in this assay (Q15910 whole entry): as the sequence (Q15910 whole entry, looked up) above
Description: Inhibition of recombinant PRC2 complex (unknown origin) assessed as kd/ka using H3K27me0 peptide substrate incubated for 3 hrs by HMT assay
For assay [6] the target is unchanged. The source holds these as a separate data set.
Target sequence in this assay (Q15910 whole entry): as the sequence (Q15910 whole entry, looked up) above
Description: Inhibition of recombinant PRC2 complex (unknown origin) assessed as dissociation rate constant using H3K27me0 peptide substrate incubated for 3 hrs by HMT assay
For assay [7], the system named is MDA-MB-468. As to the kind of experiment: cells. Particulars: Homo sapiens, MDA-MB-468, 72 h. Format: functional, cell-based.
Description: Antiproliferative activity against human MDA-MB-468 cells assessed as cell viability after 72 hrs by MTT assay
Assay [8] relates to MDA-MB-231. As to the kind of experiment: cells. Format: functional, cell-based. Particulars: Homo sapiens, MDA-MB-231, 72 h.
Description: Antiproliferative activity against human MDA-MB-231 cells assessed as cell viability after 72 hrs by MTT assay

On to `CC[C@H](C)n1nc(C)c2c(C(=O)NCc3c(C)cc(C)[nH]c3=O)cc(-c3ccc(N4CCNCC4)nc3)cc21`, for which, in assay [1], the Ka was 3.23 10^6/M/s. Also, the IC50 is more than 50 µM in assay [2]; 19.5 µM in assay [3]; 0.0108 µM in assay [4]; 9.97 µM in assay [7]; 9.26 µM in assay [8]. For the same molecule, the figures for the Kd in assay [5] and in assay [6] were 21.44 s⁻¹ and 0.06934 s⁻¹, respectively.
Consider `CC(=O)Nc1cc(-c2ccc(N3CCN(C(=O)c4cc(Cc5n[nH]c(=O)c6ccccc56)ccc4F)CC3)nc2)cc(C(=O)NCc2c(C)cc(C)[nH]c2=O)c1C`, for which, in assay [1], the Ka was 1.09 10^6/M/s. Also, the IC50 in assay [2] was more than 50 µM; in assay [3], 12.1 µM; in assay [4], 0.0365 µM; in assay [7] it was 0.41 µM; in assay [8], 2.63 µM. For the same molecule, the Kd in assay [5] turned out to be 14.56 s⁻¹; in assay [6], 0.01586 s⁻¹.

The IC50 is the concentration needed to halve the response being measured. A higher IC50 goes with weaker potency.
